Here are results for two molecules from patent publication US11226337B2, “Chemoproteomic profiling of protein electrophilic and oxidative post-translational modifications” (Zenagem, LLC, priority 2017, dated 2022).

What all share (assay): SILAC RP-ABPP
Holding throughout (format): cell-based

For test [1], the target named is T1, BLMH Bleomycin hydrolase (Q13867) (Homo sapiens, UniProt Q13867).
T1 construct: In Situ Labelling of Cells with Hydrazine Probes for MS Experiments; endogenous in cells
Particulars: SILAC H/L, HEK293T. The method, boiled down:
(§1)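 Heavy SILAC HEK293T or MDA-MB-231 cells were treated with hydrazine probe 1 (3 mM, 0.5 h); light cells received non-clickable hydrazine 3 at the same concentration (enrichment) or probe plus 10× competitor 3 (competition). Lysates were mixed, clicked to biotin-azide and analysed by LC-MS; values are median heavy:light peptide ratios averaged over ≥3 replicates.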

In test [2] the target is T2, CPVL Probable serine carboxypeptidase CPVL (Q9H3G5) (Homo sapiens, UniProt Q9H3G5).
T2 construct: shared by both the endogenous and recombinant forms of these proteins; endogenous in cells; host or cells: HEK293T and MDA-MB-231
Particulars: SILAC H/L, HEK293T. The method, boiled down:
as §1

In test [3] the target is T3, DCUN1D5 DCN1like protein 5 (Q9BTE7) (Homo sapiens, UniProt Q9BTE7).
T3 construct: shared by both the endogenous and recombinant forms of these proteins; endogenous in cells; host or cells: HEK293T and MDA-MB-231
Particulars: SILAC H/L, HEK293T. A digest of the protocol: as §1

In test [4] the target is T4, GLA Alphagalactosidase A (P06280) (Homo sapiens, UniProt P06280).
T4 construct: shared by both the endogenous and recombinant forms of these proteins; endogenous in cells; host or cells: HEK293T and MDA-MB-231
Particulars: SILAC H/L, HEK293T. A digest of the protocol: as §1

In test [5] the target is T5, NSFL1C NSFL1 cofactor p47 (Q9UNZ2) (Homo sapiens, UniProt Q9UNZ2).
T5 construct: In Situ Labelling of Cells with Hydrazine Probes for MS Experiments; endogenous in cells
Particulars: SILAC H/L, MDA-MB-231. The method, boiled down: as §1

Test [6] addresses T6, PPA2 Inorganic pyrophosphatase 2 (Q9H2U2) (Homo sapiens, UniProt Q9H2U2).
T6 construct: In Situ Labelling of Cells with Hydrazine Probes for MS Experiments; endogenous in cells
Particulars: SILAC H/L, HEK293T. A digest of the protocol: as §1

The target of test [7] is T7, IRS4 Insulin receptor substrate 4 (O14654) (Homo sapiens, UniProt O14654).
T7 construct: In Situ Labelling of Cells with Hydrazine Probes for MS Experiments; endogenous in cells
As to conditions: SILAC H/L, HEK293T. A digest of the protocol:
as §1

Test [8] has as its target T8, THBS1 Thrombospondin1 (P07996) (Homo sapiens, UniProt P07996).
T8 construct: In Situ Labelling of Cells with Hydrazine Probes for MS Experiments; endogenous in cells
Particulars: SILAC H/L, MDA-MB-231. The method, boiled down:
as §1

For test [9], the target named is T9, CCBL2 Kynurenine oxoglutarate transaminase (Q6YP21) (Homo sapiens, UniProt Q6YP21).
T9 construct: shared by both the endogenous and recombinant forms of these proteins; endogenous in cells; host or cells: HEK293T and MDA-MB-231
Particulars: SILAC H/L, HEK293T. The method, boiled down: as §1

Test [10] deals with T10, VAPA Vesicleassociated membrane (Q9P0L0) (Homo sapiens, UniProt Q9P0L0).
T10 construct: In Situ Labelling of Cells with Hydrazine Probes for MS Experiments; endogenous in cells
As to conditions: SILAC H/L, MDA-MB-231. The method, boiled down:
as §1

Test [11] deals with T11, ERAP1 Endoplasmic reticulum aminopeptidase (Q9NZ08) (Homo sapiens, UniProt Q9NZ08).
T11 construct: endogenous in cells; host or cells: HEK293T or MDA-MB-231
As to conditions: SILAC H/L, MDA-MB-231. A digest of the protocol:
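Heavy SILAC HEK293T or MDA-MB-231 cells were treated with a clickable hydrazine probe; light cells received the non-clickable analogue (enrichment) or the probe plus 10-fold excess non-clickable competitor (competition). Mixed proteomes underwent CuAAC with 100 μM biotin-azide for 1 h. Heavy:light ratios were taken as median peptide ratios (≥3 peptides) averaged over ≥3 replicates.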

T10 sequence (Q9P0L0 whole entry): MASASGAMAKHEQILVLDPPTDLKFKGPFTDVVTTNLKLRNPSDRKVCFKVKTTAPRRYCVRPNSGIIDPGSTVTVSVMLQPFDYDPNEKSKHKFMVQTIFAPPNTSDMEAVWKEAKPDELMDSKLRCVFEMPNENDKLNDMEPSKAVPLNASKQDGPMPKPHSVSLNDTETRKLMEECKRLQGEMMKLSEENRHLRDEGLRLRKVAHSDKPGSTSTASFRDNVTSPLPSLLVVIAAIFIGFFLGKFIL
T1 sequence (Q13867 whole entry): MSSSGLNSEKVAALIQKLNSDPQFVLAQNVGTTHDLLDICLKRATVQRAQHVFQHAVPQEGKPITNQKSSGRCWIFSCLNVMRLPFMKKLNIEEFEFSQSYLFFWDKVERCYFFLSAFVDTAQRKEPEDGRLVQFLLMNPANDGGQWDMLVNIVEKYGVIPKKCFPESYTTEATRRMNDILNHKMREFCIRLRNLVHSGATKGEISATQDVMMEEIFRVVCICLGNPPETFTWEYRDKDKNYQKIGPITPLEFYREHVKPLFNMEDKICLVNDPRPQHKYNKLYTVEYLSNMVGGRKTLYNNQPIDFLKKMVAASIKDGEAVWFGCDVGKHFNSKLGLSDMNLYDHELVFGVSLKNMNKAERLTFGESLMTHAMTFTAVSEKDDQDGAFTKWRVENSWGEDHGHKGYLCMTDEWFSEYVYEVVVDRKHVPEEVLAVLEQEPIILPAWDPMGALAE
T11 sequence (Q9NZ08 whole entry): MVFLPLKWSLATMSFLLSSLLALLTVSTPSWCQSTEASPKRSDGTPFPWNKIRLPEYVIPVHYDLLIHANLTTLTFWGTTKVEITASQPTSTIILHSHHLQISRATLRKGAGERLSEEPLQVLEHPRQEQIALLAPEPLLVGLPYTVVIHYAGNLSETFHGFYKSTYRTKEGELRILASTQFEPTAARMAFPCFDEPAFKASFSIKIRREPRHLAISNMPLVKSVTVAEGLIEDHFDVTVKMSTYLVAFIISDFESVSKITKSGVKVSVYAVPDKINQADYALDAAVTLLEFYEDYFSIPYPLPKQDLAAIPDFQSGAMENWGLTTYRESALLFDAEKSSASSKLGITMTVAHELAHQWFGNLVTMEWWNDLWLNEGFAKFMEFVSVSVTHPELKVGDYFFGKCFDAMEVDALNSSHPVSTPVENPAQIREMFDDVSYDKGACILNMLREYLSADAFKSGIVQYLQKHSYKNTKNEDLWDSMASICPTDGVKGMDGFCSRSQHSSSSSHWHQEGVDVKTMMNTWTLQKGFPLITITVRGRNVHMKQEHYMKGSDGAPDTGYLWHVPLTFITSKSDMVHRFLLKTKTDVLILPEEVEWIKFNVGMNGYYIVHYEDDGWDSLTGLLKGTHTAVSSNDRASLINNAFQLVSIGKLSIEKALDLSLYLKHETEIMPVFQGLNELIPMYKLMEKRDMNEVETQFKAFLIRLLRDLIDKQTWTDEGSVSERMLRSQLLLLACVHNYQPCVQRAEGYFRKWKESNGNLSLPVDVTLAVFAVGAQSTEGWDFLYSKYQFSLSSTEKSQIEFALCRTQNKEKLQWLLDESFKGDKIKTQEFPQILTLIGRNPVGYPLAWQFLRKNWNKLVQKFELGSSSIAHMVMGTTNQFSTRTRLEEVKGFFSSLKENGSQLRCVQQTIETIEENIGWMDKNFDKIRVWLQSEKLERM
T7 sequence (O14654 whole entry): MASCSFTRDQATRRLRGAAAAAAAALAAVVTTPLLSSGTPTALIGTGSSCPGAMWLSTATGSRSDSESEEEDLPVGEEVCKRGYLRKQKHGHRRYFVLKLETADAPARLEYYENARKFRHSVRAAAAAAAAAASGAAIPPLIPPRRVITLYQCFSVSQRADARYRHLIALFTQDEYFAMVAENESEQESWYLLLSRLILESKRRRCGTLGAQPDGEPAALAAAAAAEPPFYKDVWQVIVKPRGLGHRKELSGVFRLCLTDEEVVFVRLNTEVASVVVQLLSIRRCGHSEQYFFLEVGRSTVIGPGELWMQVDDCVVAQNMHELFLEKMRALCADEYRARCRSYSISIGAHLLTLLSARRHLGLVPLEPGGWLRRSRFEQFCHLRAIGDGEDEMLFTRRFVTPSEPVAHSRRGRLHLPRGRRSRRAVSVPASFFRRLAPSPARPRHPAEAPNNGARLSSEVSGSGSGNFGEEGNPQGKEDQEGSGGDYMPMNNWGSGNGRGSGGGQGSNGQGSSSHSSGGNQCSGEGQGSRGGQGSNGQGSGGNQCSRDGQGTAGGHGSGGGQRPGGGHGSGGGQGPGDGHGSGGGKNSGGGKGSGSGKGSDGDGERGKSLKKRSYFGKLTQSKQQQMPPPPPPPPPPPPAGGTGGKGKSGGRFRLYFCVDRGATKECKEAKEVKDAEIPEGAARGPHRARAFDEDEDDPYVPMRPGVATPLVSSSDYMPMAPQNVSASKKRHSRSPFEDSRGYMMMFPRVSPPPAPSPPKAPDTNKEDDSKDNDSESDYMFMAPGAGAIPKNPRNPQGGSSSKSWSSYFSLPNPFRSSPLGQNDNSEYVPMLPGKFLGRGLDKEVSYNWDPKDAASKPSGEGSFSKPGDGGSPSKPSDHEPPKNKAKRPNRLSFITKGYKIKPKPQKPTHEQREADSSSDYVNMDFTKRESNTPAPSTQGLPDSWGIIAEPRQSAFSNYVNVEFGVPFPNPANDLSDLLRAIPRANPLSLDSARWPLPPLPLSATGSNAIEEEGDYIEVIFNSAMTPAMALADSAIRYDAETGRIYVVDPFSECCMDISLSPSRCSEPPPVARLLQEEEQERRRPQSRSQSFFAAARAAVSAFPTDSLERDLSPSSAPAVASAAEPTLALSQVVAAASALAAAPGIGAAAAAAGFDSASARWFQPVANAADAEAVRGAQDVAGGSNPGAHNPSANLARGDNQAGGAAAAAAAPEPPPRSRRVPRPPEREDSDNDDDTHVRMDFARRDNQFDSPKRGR
T2 sequence (Q9H3G5 23-476): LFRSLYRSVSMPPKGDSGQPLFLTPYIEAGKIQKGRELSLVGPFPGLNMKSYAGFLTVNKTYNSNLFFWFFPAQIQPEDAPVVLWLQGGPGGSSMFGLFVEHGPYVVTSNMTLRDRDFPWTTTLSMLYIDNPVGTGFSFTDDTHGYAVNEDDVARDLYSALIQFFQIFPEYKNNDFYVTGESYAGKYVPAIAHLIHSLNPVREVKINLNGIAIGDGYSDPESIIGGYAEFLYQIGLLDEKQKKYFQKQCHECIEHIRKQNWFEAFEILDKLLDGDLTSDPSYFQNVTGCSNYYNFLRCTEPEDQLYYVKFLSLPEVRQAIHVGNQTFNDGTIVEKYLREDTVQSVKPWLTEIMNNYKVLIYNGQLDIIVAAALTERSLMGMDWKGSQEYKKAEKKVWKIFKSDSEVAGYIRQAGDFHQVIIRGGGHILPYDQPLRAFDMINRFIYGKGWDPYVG
T4 sequence (P06280 32-429): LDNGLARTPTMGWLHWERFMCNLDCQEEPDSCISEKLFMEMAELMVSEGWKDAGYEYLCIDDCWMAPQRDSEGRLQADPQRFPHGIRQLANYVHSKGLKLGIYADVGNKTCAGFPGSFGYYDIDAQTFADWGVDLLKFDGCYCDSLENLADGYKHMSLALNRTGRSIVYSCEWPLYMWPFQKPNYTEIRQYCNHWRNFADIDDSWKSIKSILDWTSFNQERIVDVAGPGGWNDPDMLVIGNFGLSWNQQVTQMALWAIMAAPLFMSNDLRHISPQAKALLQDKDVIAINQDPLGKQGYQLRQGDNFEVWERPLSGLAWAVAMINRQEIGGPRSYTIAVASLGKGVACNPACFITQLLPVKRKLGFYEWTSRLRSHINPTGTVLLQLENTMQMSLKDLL
T8 sequence (P07996 19-1170): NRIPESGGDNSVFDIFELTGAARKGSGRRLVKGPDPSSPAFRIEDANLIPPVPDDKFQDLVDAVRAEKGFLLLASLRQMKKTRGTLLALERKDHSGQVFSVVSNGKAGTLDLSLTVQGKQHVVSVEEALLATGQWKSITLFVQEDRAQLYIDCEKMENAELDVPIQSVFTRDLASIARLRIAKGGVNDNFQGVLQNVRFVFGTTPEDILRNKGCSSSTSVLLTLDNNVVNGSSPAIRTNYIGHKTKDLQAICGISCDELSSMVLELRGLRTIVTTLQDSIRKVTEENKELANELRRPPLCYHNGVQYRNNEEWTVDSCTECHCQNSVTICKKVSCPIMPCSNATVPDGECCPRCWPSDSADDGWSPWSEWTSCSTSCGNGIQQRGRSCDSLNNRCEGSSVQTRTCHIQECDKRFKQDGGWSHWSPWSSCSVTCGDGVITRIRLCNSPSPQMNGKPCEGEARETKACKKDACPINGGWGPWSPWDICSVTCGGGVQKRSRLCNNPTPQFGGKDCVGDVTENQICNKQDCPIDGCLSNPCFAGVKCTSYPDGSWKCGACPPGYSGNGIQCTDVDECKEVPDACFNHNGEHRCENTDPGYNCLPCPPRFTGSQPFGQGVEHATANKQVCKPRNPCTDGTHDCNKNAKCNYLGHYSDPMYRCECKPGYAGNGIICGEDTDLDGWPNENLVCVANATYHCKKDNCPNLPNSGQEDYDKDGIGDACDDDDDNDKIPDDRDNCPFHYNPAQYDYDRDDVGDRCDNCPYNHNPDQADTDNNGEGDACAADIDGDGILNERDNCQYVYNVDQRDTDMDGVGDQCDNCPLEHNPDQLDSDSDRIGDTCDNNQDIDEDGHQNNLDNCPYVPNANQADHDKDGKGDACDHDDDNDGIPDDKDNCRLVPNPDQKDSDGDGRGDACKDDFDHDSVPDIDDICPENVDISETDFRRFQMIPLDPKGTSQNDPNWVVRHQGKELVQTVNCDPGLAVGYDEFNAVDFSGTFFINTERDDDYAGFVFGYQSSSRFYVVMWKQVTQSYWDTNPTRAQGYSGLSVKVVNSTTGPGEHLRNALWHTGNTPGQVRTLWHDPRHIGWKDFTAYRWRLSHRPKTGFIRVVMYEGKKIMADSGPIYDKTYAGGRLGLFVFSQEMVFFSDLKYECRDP

As for `C#CCNN.Cl` [probe 1, prop-2-yn-1-ylhydrazine hydrochloride], the enrichment ratioavg in [1] (probe 1 3 mM 0.5 h vs probe 3) is reported as 9; in test [2] (probe 1 3 mM 0.5 h vs probe 3), 13; in [3] (probe 1 3 mM 0.5 h vs probe 3), 6; in test [4] (probe 1 3 mM 0.5 h vs probe 3), 11; in [5] (probe 1 3 mM 0.5 h vs probe 3), 8; in test [6] (probe 1 3 mM 0.5 h vs probe 3) it was 7. Besides, the enrichment ratioavg in test [7] (probe 1 3 mM 0.5 h vs probe 3) turned out to be 20; in test [8] (probe 1 3 mM 0.5 h vs probe 3) it was 16; in test [9] (probe 1 3 mM 0.5 h vs probe 3), 10; in test [10] (probe 1 3 mM 0.5 h vs probe 3), 20. Further, the competition ratioavg in test [1] (probe 1 vs probe 1+10x probe 3) stood at 1; in [2] (probe 1 vs probe 1+10x probe 3), 3; in test [3] (probe 1 vs probe 1+10x probe 3), 2; in test [4] (probe 1 vs probe 1+10x probe 3), 3; in test [5] (probe 1 vs probe 1+10x probe 3), 1; in test [6] (probe 1 vs probe 1+10x probe 3), 1. In addition, the competition ratioavg in [7] (probe 1 vs probe 1+10x probe 3) was 1; in test [8] (probe 1 vs probe 1+10x probe 3), 1; in test [9] (probe 1 vs probe 1+10x probe 3), 4; in test [10] (probe 1 vs probe 1+10x probe 3), 1.
`C#CCCNC(=O)c1ccc(NN)cc1.Cl` [probe 2, N-(but-3-yn-1-yl)-4-hydrazinylbenzamide hydrochloride] gave an enrichment ratioavg in test [11] (probe 2 1 mM 0.5 h vs probe 4) of 8. The molecule further showed a competition ratioavg in test [11] (probe 2 vs probe 2+10x probe 4) of 4.
